Here are results for 19 compounds from patent US8754220B2, “Quinolizidinone carboxamide M1 receptor positive allosteric modulators” (Merck Sharp & Dohme Corp., priority 2009, dated 2014).

Where two headings read alike, the source gives them in different places.

The target of the assay is T1, acetylcholine muscarinic M1 receptor (CHOnfat/hM1 cells) (Homo sapiens, UniProt P11229).
T1 construct: expressed in transfected cells; host or cells: CHOnfat (CHO cells; selected with Geneticin)
T1 sequence (P11229 1-460): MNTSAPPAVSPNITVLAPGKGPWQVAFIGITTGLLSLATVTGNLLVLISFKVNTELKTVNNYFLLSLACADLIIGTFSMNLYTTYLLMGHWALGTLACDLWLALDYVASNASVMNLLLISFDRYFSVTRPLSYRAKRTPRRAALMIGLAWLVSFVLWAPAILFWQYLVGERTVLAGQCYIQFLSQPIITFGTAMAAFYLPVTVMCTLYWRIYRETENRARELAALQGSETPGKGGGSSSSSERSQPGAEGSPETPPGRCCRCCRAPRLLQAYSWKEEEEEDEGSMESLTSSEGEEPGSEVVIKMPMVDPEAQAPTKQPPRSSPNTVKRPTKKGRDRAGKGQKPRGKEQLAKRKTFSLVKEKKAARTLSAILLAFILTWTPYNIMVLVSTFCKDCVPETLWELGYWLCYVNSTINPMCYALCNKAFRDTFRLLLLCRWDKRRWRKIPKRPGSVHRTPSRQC
Briefly: FLIPR intracellular calcium assay for M1 positive allosteric modulator activity (acetylcholine EC20). The class given is cell-based. The procedure:
The assay studies the effect of one or several concentrations of test compounds on basal or acetylcholine-stimulated Ca^2+ levels using FLIPR.
Compounds are prepared and subjected to a preincubation period of 4 min. Thereafter, a single EC20 concentration of acetylcholine is added to each well (3 nM final). The intracellular Ca^2+ level of each sample is measured and compared to an acetylcholine control to determine any modulatory activity.
Cells: CHOnfat/hM1, hM2, hM3 or hM4 cells are plated 24 hr before the assay at a density of 18,000 cells/well (100 μL) in a 384 well plate. CHOnfat/hM1 and CHOnfat/hM3 Growth Medium: 90% DMEM (Hi Glucose); 10% HI FBS; 2 mM L-glutamine; 0.1 mM NEAA; Pen-Strep; and 1 mg/ml Geneticin, are added. For M2Gqi5CHOnfat and M4Gqi5CHOnfat cells, an additional 600 μg/ml hygromycin is added.
Equipment: 384 well plate, 120 μL addition plate; 96-well Whatman 2 ml Uniplate Incubator, 37° C., 5% CO2; Skatron EMBLA-384 Plate Washer; Multimek Pipetting System; Genesis Freedom 200 System; Mosquito System; Temo Nanoliter Pipetting System; and FLIPR^384 Fluorometric Imaging Plate Reader System are used.
Buffers. Assay Buffer: Hanks Balanced Salt Solution, with 20 mM Hepes, 2.5 mM Probenecid (Sigma P-8761) first dissolved in 1 N NaOH, 1% Bovine Serum Albumin (Sigma A-9647). Dye Loading Buffer: Assay Buffer plus 1% Fetal Bovine Serum and Fluo-4AM/Pluronic Acid Mixture. 2 mM Fluo-4AM ester stock in DMSO (Molecular Probes F-14202) Concentration of 2 μM in buffer for a final concentration of 1 μM in Assay. 20% Pluronic Acid Solution stock, with concentration of 0.04% in Buffer, 0.02% in Assay.
65 μL of 2 mM Fluo-4AM are mixed with 130 μL of 20% Pluronic Acid. The resulting solution and 650 μL FBS is added to the assay buffer for a total volume of 65 mL. Positive Controls: 4-Br-A23187: 10 mM in DMSO; final concentration 10 μM. Acetylcholine: 10 mM in water, working stock at both 20 μM and 30 μM in assay buffer, final concentration of 10 μM. This is used to check the maximum stimulation of the CHOK1/hM1 cells. 20 μM (2×) acetylcholine is added in the preincubation part of the assay, and the 30 μM (3×) stock is added in the second part. (EC20) Acetylcholine: 10 mM in water, working stock of 9 nM (3×), and final concentration in assay is 3 nM. This is used after the preincubation with test compounds. Addition of the EC20 Acetylcholine to each well with a test compound will ascertain any modulator activity. 24 wells contain 3 nM Acetylcholine alone as a control.
Screening Plate: Compounds are titrated in 96-well plates (columns 2-11), 100% DMSO, started at a concentration of 15 mM (150× stock concentration), and 3-fold serial dilutions using Genesis Freedom200 System. Four 96-well plates are combined into a 384-well plate using Mosquito Nanoliter Pipetting System by transferring 1 μl of serial diluted compounds to each well, and 1 mM acetylcholine (100× stock concentration) were added as a control. Using Temo, 49 μl assay buffer is added to each well of the 384-well plate right before assay.
In a 96-well Whatman 2 ml Uniplate, 9 nM Acetylcholine (3×) is pipetted into wells corresponding to the screening compounds, and into control wells. The 30 μM acetylcholine control (3×) is added into control wells, and the 3× agonist plate is transferred into a 384 well plate.
Cells are washed three times with 100 μL of buffer, leaving 30 μL of buffer in each well. Using Multimek, 30 μL of Dye Loading Buffer is added into each well and incubated at 37° C., 5% CO2 for up to one hr.
After 60 min, the cells are washed three times with 100 μL of buffer, leaving 30 μL of buffer in each well. The cell plate, screening plate, and agonist addition plates are placed on the platform in the FLIPR and the door closed. A signal test to check background fluorescence and basal fluorescence signal is performed. Laser intensity is adjusted if necessary. […]
Background: Calcium assays in cells follow changes in intracellular calcium, usually with a dye or a luminescent sensor.

Where [1] appears, read: CHOnfat/hM1 cells, 4 min preincubation, then EC20 acetylcholine (3 nM final), FLIPR Ca2+, read-out: IP Value (inflection point).

As for `N#CC1(c2ccccn2)CCN(Cc2cc(C(=O)N[C@H]3COCC[C@@H]3O)c(=O)n3ccccc23)CC1` (racemic) [Example 8, rac-1-[(4-Cyano-4-pyridin-2-ylpiperidin-1yl)methyl]-N-[(3R,4R)-4-hydroxytetrahydro-2H-pyran-3-yl]-4-oxo-4H-quinolizine-3-carboxamide], the EC50 under setting [1] turned out to be 220 nM. The same measure, in the same setting: then `Cc1cccn2c(=O)c(C(=O)NC3CCOCC3)cc(CN3CCC(C#N)(c4ccccn4)CC3)c12` [Example 25, 1-[(4-Cyano-4-pyridin-2-ylpiperidin-1-yl)methyl]-9-methyl-4-oxo-N-(tetrahydro-2H-pyran-4-yl)-4H-quinolizine-3-carboxamide], with 2100 nM. On to `N#CC1(c2ccccc2Br)CCN(Cc2cc(C(=O)N[C@H]3CCCC[C@@H]3O)c(=O)n3ccccc23)CC1` [Example 12], for which the EC50 turned out to be 24 nM. The same measure, in the same setting: under `N#CC1(c2ncc(Br)cc2Br)CCN(Cc2cc(C(=O)N[C@H]3CCOC[C@@H]3O)c(=O)n3ccccc23)CC1` [Example 10, 1-{[4-Cyano-4-(3,5-dibromopyridin-2-yl)piperidin-1-yl]methyl}-N-[(3R,4S)-3-hydroxytetrahydro-2H-pyran-4-yl]-4-oxo-4H-quinolizine-3-carboxamide] stands 14 nM. For `Cn1cc(-c2ccc(Cc3cc(C(=O)N[C@H]4CCCC[C@@H]4O)c(=O)n4ccccc34)nc2)cn1` [Example 3, N-[(1S,2S)-2-Hydroxycyclohexyl]-{-[5-(1-methyl-1H-pyrazol-4-yl)pyridine-2-yl]methyl}-4-oxo-4H-quinolizine-3-carboxamide], the EC50 under setting [1] came out at 15 nM.

Take `N#CC1(c2ccccn2)CCN(Cc2cc(C(=O)N[C@H]3CCCC[C@@H]3Br)c(=O)n3ccccc23)CC1` (racemic) [Example 13, rac-N-[(1R,2R)-2-Bromocyclohexyl)-1-[(4-cyano-4-pyridin-2-ylpiperidin-1-yl)methyl]-4-oxo-4H-quinolizine-3-carboxamide]: the EC50 under setting [1] turned out to be 480 nM.

As for `Cn1cc(N2CCN(Cc3cc(C(=O)N[C@H]4CCCC[C@@H]4O)c(=O)n4ccccc34)CC2=O)cn1` [Example 6, N-[(1S,2S)-2-Hydroxycyclohexyl]-1-{[4-(1-methyl-1H-pyrazol-4-yl)-3-oxopiperazin-1-yl]methyl}-4-oxo-4H-quinolizine-3-carboxylate], the EC50 under setting [1] was 170 nM. Same read-out and setting: under `C[C@H]1COCC[C@@H]1NC(=O)c1cc(CN2CCC(C#N)(c3ccccn3)CC2)c2ccccn2c1=O` (racemic) [Example 21, rac-1-[(4-Cyano-4-pyridin-2-ylpiperidin-1-yl)methyl]-N-[(3R,4S)-3-methyltetrahydro-2H-pyran-4-yl]-4-oxo-4H-quinolizine-3-carboxamide] stands 380 nM. Still for that read-out and setting: under `O=C(N[C@H]1CCCC[C@@H]1O)c1cc(Cc2ccc(Br)cn2)c2ccccn2c1=O` [Example 2, 1-[(5-Bromopyridin-2-yl)methyl]-N-[(1S,2S)-2-hydroxycyclohexyl]-4-oxo-4H-quinolizine-3-carboxamide] stands 105 nM. Take `N#CC1(c2ccccn2)CCN(Cc2cc(C(=O)N[C@H]3CCOC[C@@H]3O)c(=O)n3ccccc23)CC1` (racemic) [Example 7, rac-1-[(4-Cyano-4-pyridin-2-ylpiperidin-1yl)methyl]-N-[(3R,4S)-3-hydroxytetrahydro-2H-pyran-4-yl]-4-oxo-4H-quinolizine-3-carboxamide]: the EC50 was determined as 25 nM.

As for `C[S@@+]([O-])[C@H]1CCCC[C@@H]1NC(=O)c1cc(CN2CCC(C#N)(c3ccccn3)CC2)c2ccccn2c1=O` (racemic) [Example 17, rac-1-[(4-Cyano-4-pyridin-2-ylpiperidin-1-yl)methyl]-N-{(1R,2R)-2-[(S)-methylsulfinyl]cyclohexyl}-4-oxo-4H-quinolizine-3-carboxamide], the EC50 under setting [1] was found to be 2600 nM. Take `N#CC1(c2ccccc2)CCN(Cc2cc(C(=O)N[C@@H]3CCOC[C@H]3O)c(=O)n3ccccc23)CC1` [Example 9, 1-[(4-Cyano-4-phenylpiperidin-1-yl)methyl]-N-[(3S,4R)-3-hydroxytetrahydro-2H-pyran-4-yl]-4-oxo-4H-quinolizine-3-carboxamide]: the EC50 is 530 nM. Take `COC(=O)N1CCC(NC(=O)c2cc(CN3CCC(C#N)(c4ccccn4)CC3)c3ccccn3c2=O)CC1` [Example 20, Methyl 4-[({1-[(4-cyano-4-pyridin-2-ylpiperidin-1-yl)methyl]-4-oxo-4H-quinolizin-3-yl}carbonyl)amino]piperidine-1-carboxylate]: the EC50 under setting [1] stood at 600 nM. Still for that read-out and setting: under `O=C(N[C@H]1CCCC[C@@H]1O)c1cc(CN2CCN(c3ccc(C(F)F)nc3)CC2)c2ccccn2c1=O` [Example 5, 1-({4-[6-(Difluoromethyl)pyridine-3-yl]piperazin-1-yl}methyl)-N-[(1S,2S)-2-hydroxycyclohexyl]-4-oxo-4H-quinolizine-3-carboxamide] stands 210 nM. With `CS(=O)(=O)[C@H]1CCCC[C@@H]1NC(=O)c1cc(CN2CCC(C#N)(c3ccccn3)CC2)c2ccccn2c1=O` (racemic) [Example 18, rac-1-[(4-Cyano-4-pyridin-2-ylpiperidin-1-yl)methyl]-N-[(1R,2R)-2-(methylsulfonyl)cyclohexyl]-4-oxo-4H-quinolizine-3-carboxamide], the EC50 under setting [1] was found to be 800 nM. Still for that read-out and setting: then `N#Cc1ccnc(C2(C#N)CCN(Cc3cc(C(=O)N[C@H]4CCCC[C@@H]4O)c(=O)n4ccccc34)CC2)c1` [Example 22, 1-{[4-Cyano-4-(4-cyanopyridin-2-yl)piperidin-1-yl]methyl}-N-[(1S,2S)-2-hydroxycyclohexyl]-4-oxo-4H-quinolizine-3-carboxamide], with 280 nM; and `CS[C@H]1CCCC[C@@H]1NC(=O)c1cc(CN2CCC(C#N)(c3ccccn3)CC2)c2ccccn2c1=O` (racemic) [Example 16, rac-1-[(4-Cyano-4-pyridin-2-ylpiperidin-1-yl)methyl]-N-[(1R,2R)-2-(methylthio)cyclohexyl]-4-oxo-4H-quinolizine-3-carboxamide], with 180 nM.

With `O=C(N[C@H]1CCCC[C@@H]1O)c1cc(Cc2ccc(-n3cccn3)cn2)c2ccccn2c1=O` [Example 4, N-[(1S,2S)-2-Hydroxycyclohexyl]-4-oxo-1-{[5-(1H-pyrazol-1-yl)pyridine-2-yl]methyl}-4H-quinolizine-3-carboxamide], under setting [1], the EC50 stood at 444 nM. For the compound `N#CC1(c2ccccc2)CCN(Cc2cc(C(=O)N[C@H]3COCC[C@@H]3O)c(=O)n3ccccc23)CC1` [Example 11, 1-[(4-Cyano-4-phenylpiperidin-1-yl)methyl]-N-[(3S,4S)-4-hydroxytetrahydro-2H-pyran-3-yl]-4-oxo-4H-quinolizine-3-carboxamide], the EC50 was 560 nM.
